Measured values taken from patent US5137811A, “Method for diagnosing periodontal diseases with a substrate specific for aminopeptidase activity of periodontopathic bacteria” (Sunstar Kabushiki Kaisha, priority 1986, dated 1992).
Where a SMILES comes first, the peptide text is derived from it. The star is where a group is joined. βNA = c1ccc2cc(N*)ccc2c1; Cbz = O=C(OCc1ccccc1)*

Assays:
[1] = test system: periodontopathic bacteria specific aminopeptidase activity; assay: Hydrolytic activity of gingival crevicular fluid specimens, OD525 (Experiment 6); format: biochemical
[2] = test system: periodontopathic bacteria specific aminopeptidase activity; assay: Hydrolytic activity of saliva supernatant (Experiment 7); format: biochemical; details: 37° C. for 4 hours, Table 7
Protocol: (§1) Specimens of gingival crevicular fluid were collected with paper points from five subjects who were considered to be healthy from their clinical state, six subjects with gingivitis and six subjects with periodontitis. Each specimen was dispersed in Ringer's solution (1.5 ml), and the relative amount of spirochete to total bacteria: [formula] was determined with a phase contrast microscope. Further, the Ringer's solution (0.3 ml) was tested for hydrolytic activity using the substrate solution prepared in the same manner as described in Experiment 1. As substrates, there were used compounds of the formula [1], i.e., N-benzoylvalyl-glycyl-arginine-β-naphthylamide (BzVGR) and N-carbobenzoxy-valyl-glycyl-arginine-β-naphthylamide (CxVGR) were used.
(§2) A saliva mixture was collected from a group consisting of ten healthy subjects and centrifuged to obtain a supernatant. Likewise, centrifuged supernatants were obtained from a group of ten subjects with adult periodontitis and a group of four localized juvenile periodontitis. The supernatant was used as a specimen and its hydrolytic activity was determined according to the same manner as described in Experiment 4 except that the reaction was carried out at 37° C. for 4 hours. As the substrates, there were used N-carbobenzoxy-valyl-glycyl-arginine-p-nitrophenol (CxVGR-pNP), N-carbobenzoxy-valyl-glycylarginine-4-methoxy-2-naphthylamide (CxVGR-4NA) and N-carbobenzoxy-valyl-glycyl-arginine-β-naphthylamide (CxVGR-βNA). Color was developed by using lN sodium hydroxide for CxVGR-pNP and Fast Blue BB for CxVGR-4NA and CxVGR-βNA.

B. gingivalis = assay: Hydrolytic activity of cell suspension, substrates alone or in combination (Experiment 3); format: cell-based; details: five strains, Table 3
Procedure, shortened: (§3)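 Cell suspensions (A660 = 1.0) were grown at 37 °C: Treponema anaerobically in TYGVS for 7 days, others in BHI broth for 48–72 h. They were reacted 60 min at 37 °C with 0.2 mM β-naphthylamide aminopeptidase substrate solutions (0.1 M Tris-HCl, pH 7.0), then Garnet GBC was added and A525 read after 15 min. Mean released β-naphthylamine per species was graded: +++ 40–<80, ++++ ≥80 nmol/ml.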

Actinomyces israelli = assay: as above; format: cell-based; details: two strains, Table 3
Procedure, shortened: as §3

Fusobacterium nucleatum [3] = assay: as above; format: cell-based; details: three strains, Table 3
Procedure, shortened: as §3

Treponema denticola [4] = assay: as above; format: cell-based; details: four strains, Table 3
Procedure, shortened: as §3

[5] = test system: Actinobacillus actinomycetemcomitans; assay: as above; format: cell-based; details: four strains, Table 3
Procedure, shortened: as §3

[6] = test system: periodontopathic bacteria specific aminopeptidase activity; assay: Hydrolytic activity of gingival crevicular fluid specimens, visually evaluated (Experiment 4); format: biochemical; set-up: key: -: orange; +: dark orange; ++: brown; +++: dark brown
Protocol: Substrate compounds for aminopeptidase enzyme having various color developing groups derived from β-naphthylamine were dissolved in 0.1M Tris-HCl buffer (pH 7.0) at the concentration of 0.2 mM to obtain substrate solutions.
To the substrate solution (1.5 ml) was added the above cell suspension (0.3 ml) and reacted at 37° C. for 60 minutes. After completion of the reaction, a coloring reagent [prepared by dissolving diazonium salt of Garnet GBC in 1M acetate buffer (containing 10% Tween 20, pH: 4.2) at the concentration of 0.5 mg/ml] was added and, after 15 minutes, the absorption at 525 nm was determined with a spectrophotometer.
as §1
In table 4, hydrolytic activity was visually evaluated and expressed as follows: […]

Fusobacterium nucleatum [7] = assay: Hydrolytic activity of oral anaerobe cell suspension on aminopeptidase substrates (Experiment 1); format: cell-based; details: three strains, substrate 0.2 mM, pH 7.0, 37° C., 60 minutes, Table 1
Procedure, shortened: (§4)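 Treponema grown anaerobically in TYGVS (37 °C, 7 days) and other strains in brain heart infusion (37 °C, 48–72 h), then diluted to A660 1.0. Cells reacted 60 min at 37 °C with β-naphthylamine-derived substrates (0.2 mM solution, 0.1 M Tris-HCl pH 7.0). Garnet GBC coupling, A525 after 15 min; activity graded from mean released β-naphthylamine per strain.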

Treponema denticola [8] = assay: as above; format: cell-based; details: four strains, substrate 0.2 mM, pH 7.0, 37° C., 60 minutes, Table 1
Procedure, shortened: as §4

[9] = test system: Actinobacillus actinomycetemcomitans; assay: as above; format: cell-based; details: four strains, substrate 0.2 mM, pH 7.0, 37° C., 60 minutes, Table 1
Procedure, shortened: as §4

Capnocytophaga sp. = assay: as above; format: cell-based; details: four strains, substrate 0.2 mM, pH 7.0, 37° C., 60 minutes, Table 1
Procedure, shortened: as §4

Bacteroides gingivalis = assay: as above; format: cell-based; details: five strains, substrate 0.2 mM, pH 7.0, 37° C., 60 minutes, Table 1
Procedure, shortened: as §4

[10] = test system: periodontopathic bacteria specific aminopeptidase activity; assay: Hydrolytic activity of saliva supernatant, substrates alone or in combination (Experiment 9); format: biochemical; details: 37° C. for 4 hours, Table 9
Protocol: as §2
According to the same manner as described in Experiment 7, hydrolytic activity was tested by using N-carbobenzoxy-valyl-glycyl-arginine-β-naphthylamide (CxVGR-βNA), N-benzoyl-arginyl-glycyl-phenylalanyl-proline-β-naphthylamide (BzRGFP-βNA), N-carbobenzoxy-valyl-glycylarginine-p-nitrophenol (CxVGR-pNP) and N-benzoyl-arginylglycyl-phenylalanyl-proline-p-nitrophenol (BzRGFP-pNP) alone or in combination as the substrates.

[11] = Gingivitis subject 1 (spirochete 7.3 %)
[12] = Gingivitis subject 2 (spirochete 16.7 %)
[13] = Gingivitis subject 3 (spirochete 20.5 %)
[14] = Gingivitis subject 4 (spirochete 6.8 %)
[15] = Gingivitis subject 5 (spirochete 7.3 %)
[16] = Gingivitis subject 6 (spirochete 14.4 %)
[17] = Healthy subject 1 (spirochete 0.1 %)
[18] = Healthy subject 2 (spirochete 2.5 %)
[19] = Healthy subject 3 (spirochete 1.1 %)
[20] = Healthy subject 4 (spirochete 0.6 %)
[21] = Healthy subject 5 (spirochete 1.3 %)
[22] = Periodontitis subject 1 (spirochete 45.2 %)
[23] = Periodontitis subject 2 (spirochete 30.3 %)
[24] = Periodontitis subject 3 (spirochete 34.6 %)
[25] = Periodontitis subject 4 (spirochete 21.2 %)
[26] = Periodontitis subject 5 (spirochete 40.3 %)
[27] = Periodontitis subject 6 (spirochete 35.1 %)
[28] = Localized juvenile periodontitis subjects

## CC(C)[C@H](NC(=O)OCc1ccccc1)C(=O)NCC(=O)N[C@@H](CCCNC(=N)N)C(=O)Nc1ccc2ccccc2c1 [CxVGR, N-carbobenzoxy-valyl-glycyl-arginine-β-naphthylamide] (Cbz-Val-Gly-Arg-βNA)
[1]; [11]
  hydrolytic activity, absorption at 525 nm (OD525): + (0.1≤OD525 <0.2)
[1]; [12]
  hydrolytic activity, absorption at 525 nm (OD525): + (0.1≤OD525 <0.2)
[1]; [13]
  hydrolytic activity, absorption at 525 nm (OD525): ++ (0.2≤OD525 <0.4)
[1]; [14]
  hydrolytic activity, absorption at 525 nm (OD525): - (OD525 <0.1)
[1]; [15]
  hydrolytic activity, absorption at 525 nm (OD525): - (OD525 <0.1)
[1]; [16]
  hydrolytic activity, absorption at 525 nm (OD525): + (0.1≤OD525 <0.2)
[1]; [17]
  hydrolytic activity, absorption at 525 nm (OD525): - (OD525 <0.1)
[1]; [18]
  hydrolytic activity, absorption at 525 nm (OD525): + (0.1≤OD525 <0.2)
[1]; [19]
  hydrolytic activity, absorption at 525 nm (OD525): - (OD525 <0.1)
[1]; [20]
  hydrolytic activity, absorption at 525 nm (OD525): - (OD525 <0.1)
[1]; [21]
  hydrolytic activity, absorption at 525 nm (OD525): - (OD525 <0.1)
[1]; [22]
  hydrolytic activity, absorption at 525 nm (OD525): +++ (0.4≤OD525 <0.8)
[1]; [23]
  hydrolytic activity, absorption at 525 nm (OD525): +++ (0.4≤OD525 <0.8)
[1]; [24]
  hydrolytic activity, absorption at 525 nm (OD525): +++ (0.4≤OD525 <0.8)
[1]; [25]
  hydrolytic activity, absorption at 525 nm (OD525): +++ (0.4≤OD525 <0.8)
[1]; [26]
  hydrolytic activity, absorption at 525 nm (OD525): +++ (0.4≤OD525 <0.8)
[1]; [27]
  hydrolytic activity, absorption at 525 nm (OD525): +++ (0.4≤OD525 <0.8)
[2]; Adult Periodontitis subjects
  hydrolytic activity: 35.6 ± 9.8 nmol/mL
[2]; Healthy subjects
  hydrolytic activity: 16.1 ± 10.3 nmol/mL
[2]; [28]
  hydrolytic activity: 33.4 ± 10.0 nmol/mL
B. gingivalis
  hydrolytic activity (release amount): +++ (40≤release amount<80 nmol/ml)
Actinomyces israelli
  hydrolytic activity (release amount): - (release amount<5 nmol/ml)
Fusobacterium nucleatum [3]
  hydrolytic activity (release amount): - (release amount<5 nmol/ml)
Treponema denticola [4]
  hydrolytic activity (release amount): +++ (40≤release amount<80 nmol/ml)
[5]
  hydrolytic activity (release amount): - (release amount<5 nmol/ml)
[6]; [11]
  hydrolytic activity, visually evaluated: +
[6]; [12]
  hydrolytic activity, visually evaluated: +
[6]; [13]
  hydrolytic activity, visually evaluated: ++
[6]; [14]
  hydrolytic activity, visually evaluated: -
[6]; [15]
  hydrolytic activity, visually evaluated: -
[6]; [16]
  hydrolytic activity, visually evaluated: +
[6]; [17]
  hydrolytic activity, visually evaluated: -
[6]; [18]
  hydrolytic activity, visually evaluated: +
[6]; [19]
  hydrolytic activity, visually evaluated: -
[6]; [20]
  hydrolytic activity, visually evaluated: -
[6]; [21]
  hydrolytic activity, visually evaluated: -
[6]; [22]
  hydrolytic activity, visually evaluated: +++
[6]; [23]
  hydrolytic activity, visually evaluated: +++
[6]; [24]
  hydrolytic activity, visually evaluated: +++
[6]; [25]
  hydrolytic activity, visually evaluated: +++
[6]; [26]
  hydrolytic activity, visually evaluated: +++
[6]; [27]
  hydrolytic activity, visually evaluated: +++
Fusobacterium nucleatum [7]
  hydrolytic activity (average amount of released β-naphthylamine): - (release amount<5 nmol/ml)
Treponema denticola [8]
  hydrolytic activity (average amount of released β-naphthylamine): +++ (release amount≥40 nmol/ml)
[9]
  hydrolytic activity (average amount of released β-naphthylamine): - (release amount<5 nmol/ml)
Capnocytophaga sp.
  hydrolytic activity (average amount of released β-naphthylamine): - (release amount<5 nmol/ml)
Bacteroides gingivalis
  hydrolytic activity (average amount of released β-naphthylamine): +++ (release amount≥40 nmol/ml)
[10]; Adult Periodontitis subjects
  hydrolytic activity: 34.8 ± 10.2 nmol/mL
[10]; Healthy subjects
  hydrolytic activity: 15.0 ± 8.8 nmol/mL
[10]; [28]
  hydrolytic activity: 31.5 ± 9.8 nmol/mL
